From PubChem BioAssay AID1963983 (Molecular Pharmacology Branch, DTP, NCI, 2024)

Tested on: 186277-243-T-J2-PDC multi-cell spheroid viability
Assay: Anticancer human tumor 186277-243-T-J2-PDC patient-derived colon adenocarcinoma cell line growth inhibition [PI3K]
Settings: for IC50: curve of first compound; for viability, T/C: stronger effect = lower value
In short: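 Stroma-containing spheroids: tumor line, pooled-donor HUVEC, hMSC. Treatments: targeted agents with PI3K inhibitors. Dosing: clinically relevant, half-log spacing, 10 microM ceiling without known Cmax. Read-out: cell viability.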

[1] = second compound 0.00316 µM, first compound 0.00949 µM
[2] = second compound 0.00316 µM, first compound 0.03 µM
[3] = second compound 0.00316 µM, first compound 0.0949 µM
[4] = second compound 0.00316 µM, first compound 0.3 µM
[5] = second compound 0.00316 µM, first compound 0.949 µM
[6] = second compound 0.00316 µM, first compound 3 µM
[7] = second compound 0.01 µM, first compound 0.00949 µM
[8] = second compound 0.01 µM, first compound 0.03 µM
[9] = second compound 0.01 µM, first compound 0.0949 µM
[10] = second compound 0.01 µM, first compound 0.3 µM
[11] = second compound 0.01 µM, first compound 0.949 µM
[12] = second compound 0.01 µM, first compound 3 µM
[13] = second compound 0.0316 µM, first compound 0.00949 µM
[14] = second compound 0.0316 µM, first compound 0.03 µM
[15] = second compound 0.0316 µM, first compound 0.0949 µM
[16] = second compound 0.0316 µM, first compound 0.3 µM
[17] = second compound 0.0316 µM, first compound 0.949 µM
[18] = second compound 0.0316 µM, first compound 3 µM
[19] = second compound 0.1 µM, first compound 0.00949 µM
[20] = second compound 0.1 µM, first compound 0.03 µM
[21] = second compound 0.1 µM, first compound 0.0949 µM
[22] = second compound 0.1 µM, first compound 0.3 µM
[23] = second compound 0.1 µM, first compound 0.949 µM
[24] = second compound 0.1 µM, first compound 3 µM
[25] = second compound 0.316 µM, first compound 0.00949 µM
[26] = second compound 0.316 µM, first compound 0.03 µM
[27] = second compound 0.316 µM, first compound 0.0949 µM
[28] = second compound 0.316 µM, first compound 0.3 µM
[29] = second compound 0.316 µM, first compound 0.949 µM
[30] = second compound 0.316 µM, first compound 3 µM
[31] = second compound 1 µM, first compound 0.00949 µM
[32] = second compound 1 µM, first compound 0.03 µM
[33] = second compound 1 µM, first compound 0.0949 µM
[34] = second compound 1 µM, first compound 0.3 µM
[35] = second compound 1 µM, first compound 0.949 µM
[36] = second compound 1 µM, first compound 3 µM
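Note: spheroids exposed to compounds for seven days before viability reading.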
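Throughout, for viability, T/C: 100% = DMSO vehicle control viability.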

Cn1cnc2c(F)c(Nc3ccc(Br)cc3Cl)c(C(=O)NOCCO)cc21 + CC(Nc1ccc2c(c1)OCCn1cc(N3C(=O)OCC3C(F)F)nc1-2)C(N)=O
IC50 (second compound 0.00316 µM): 115 nM
IC50 (second compound 0.01 µM): 77.8 nM
IC50 (second compound 0.0316 µM): 39.4 nM
IC50 (second compound 0.1 µM): 11.9 nM
IC50 (second compound 0.316 µM): < 9.49 nM
IC50 (second compound 1 µM): < 9.49 nM
viability, T/C [1]: 97.2%
viability, T/C [2]: 83%
viability, T/C [3]: 47.7%
viability, T/C [4]: 36.6%
viability, T/C [5]: 14.2%
viability, T/C [6]: 8.95%
viability, T/C [7]: 101%
viability, T/C [8]: 79.8%
viability, T/C [9]: 40.4%
viability, T/C [10]: 26.5%
viability, T/C [11]: 15.9%
viability, T/C [12]: 9.46%
viability, T/C [13]: 94%
viability, T/C [14]: 54.5%
viability, T/C [15]: 32.8%
viability, T/C [16]: 19.2%
viability, T/C [17]: 10.6%
viability, T/C [18]: 6.13%
viability, T/C [19]: 53.9%
viability, T/C [20]: 33.8%
viability, T/C [21]: 22.4%
viability, T/C [22]: 8.1%
viability, T/C [23]: 7.55%
viability, T/C [24]: 3.21%
viability, T/C [25]: 30.7%
viability, T/C [26]: 16.4%
viability, T/C [27]: 9.95%
viability, T/C [28]: 4.19%
viability, T/C [29]: 4.43%
viability, T/C [30]: 3.42%
viability, T/C [31]: 20.1%
viability, T/C [32]: 10.1%
viability, T/C [33]: 4.65%
viability, T/C [34]: 3.78%
viability, T/C [35]: 3.32%
viability, T/C [36]: 0.47%

CC1(C)CCC(Nc2ncc(C(F)(F)F)c(-c3c[nH]c4c(P(C)(C)=O)c(C#N)ccc34)n2)CN1 (stereo unspecified) + CC(Nc1ccc2c(c1)OCCn1cc(N3C(=O)OCC3C(F)F)nc1-2)C(N)=O
IC50 (second compound 0.00316 µM): 3600 nM
IC50 (second compound 0.01 µM): 3860 nM
IC50 (second compound 0.0316 µM): 3520 nM
IC50 (second compound 0.1 µM): 1650 nM
IC50 (second compound 0.316 µM): 56.9 nM
IC50 (second compound 1 µM): < 31.6 nM
viability, T/C (second compound 0.00316 µM, first compound 0.0316 µM): 71.6%
viability, T/C (second compound 0.00316 µM, first compound 0.1 µM): 45.1%
viability, T/C (second compound 0.00316 µM, first compound 0.316 µM): 52.8%
viability, T/C (second compound 0.00316 µM, first compound 1 µM): 56.5%
viability, T/C (second compound 0.00316 µM, first compound 3.16 µM): 56.6%
viability, T/C (second compound 0.00316 µM, first compound 10 µM): 1.03%
viability, T/C (second compound 0.01 µM, first compound 0.0316 µM): 69.1%
viability, T/C (second compound 0.01 µM, first compound 0.1 µM): 52.9%
viability, T/C (second compound 0.01 µM, first compound 0.316 µM): 55%
viability, T/C (second compound 0.01 µM, first compound 1 µM): 58.9%
viability, T/C (second compound 0.01 µM, first compound 3.16 µM): 66.3%
viability, T/C (second compound 0.01 µM, first compound 10 µM): 0.23%
viability, T/C (second compound 0.0316 µM, first compound 0.0316 µM): 78%
viability, T/C (second compound 0.0316 µM, first compound 0.1 µM): 54.3%
viability, T/C (second compound 0.0316 µM, first compound 0.316 µM): 51.7%
viability, T/C (second compound 0.0316 µM, first compound 1 µM): 57.8%
viability, T/C (second compound 0.0316 µM, first compound 3.16 µM): 55.3%
viability, T/C (second compound 0.0316 µM, first compound 10 µM): 0.17%
viability, T/C (second compound 0.1 µM, first compound 0.0316 µM): 72.7%
viability, T/C (second compound 0.1 µM, first compound 0.1 µM): 54.3%
viability, T/C (second compound 0.1 µM, first compound 0.316 µM): 60.4%
viability, T/C (second compound 0.1 µM, first compound 1 µM): 55.6%
viability, T/C (second compound 0.1 µM, first compound 3.16 µM): 43.6%
viability, T/C (second compound 0.1 µM, first compound 10 µM): 0.46%
viability, T/C (second compound 0.316 µM, first compound 0.0316 µM): 54.2%
viability, T/C (second compound 0.316 µM, first compound 0.1 µM): 49.7%
viability, T/C (second compound 0.316 µM, first compound 0.316 µM): 33.4%
viability, T/C (second compound 0.316 µM, first compound 1 µM): 41%
viability, T/C (second compound 0.316 µM, first compound 3.16 µM): 22.6%
viability, T/C (second compound 0.316 µM, first compound 10 µM): 0.44%
viability, T/C (second compound 1 µM, first compound 0.0316 µM): 34.5%
viability, T/C (second compound 1 µM, first compound 0.1 µM): 29.1%
viability, T/C (second compound 1 µM, first compound 0.316 µM): 22.6%
viability, T/C (second compound 1 µM, first compound 1 µM): 26.4%
viability, T/C (second compound 1 µM, first compound 3.16 µM): 12.2%
viability, T/C (second compound 1 µM, first compound 10 µM): 1.38%

Cn1cnc2c(F)c(Nc3ccc(Br)cc3Cl)c(C(=O)NOCCO)cc21 + COc1c(OCCCN2CCOCC2)ccc2c3n(c(=NC(=O)c4cnc(N)nc4)nc12)CCN3
IC50 (second compound 0.00316 µM): 73.9 nM
IC50 (second compound 0.01 µM): 29.9 nM
IC50 (second compound 0.0316 µM): < 9.49 nM
IC50 (second compound 0.1 µM): < 9.49 nM
IC50 (second compound 0.316 µM): < 9.49 nM
IC50 (second compound 1 µM): < 9.49 nM
viability, T/C [1]: 91.7%
viability, T/C [2]: 74.6%
viability, T/C [3]: 38.3%
viability, T/C [4]: 28.9%
viability, T/C [5]: 13.1%
viability, T/C [6]: 7.3%
viability, T/C [7]: 81.6%
viability, T/C [8]: 50%
viability, T/C [9]: 24.9%
viability, T/C [10]: 11.7%
viability, T/C [11]: 8.98%
viability, T/C [12]: 5.03%
viability, T/C [13]: 28.9%
viability, T/C [14]: 20.9%
viability, T/C [15]: 13.5%
viability, T/C [16]: 8.43%
viability, T/C [17]: 3.94%
viability, T/C [18]: 2.23%
viability, T/C [19]: 14.6%
viability, T/C [20]: 7.23%
viability, T/C [21]: 5.32%
viability, T/C [22]: 2.22%
viability, T/C [23]: 0.6%
viability, T/C [24]: 0.24%
viability, T/C [25]: 2.44%
viability, T/C [26]: 1.09%
viability, T/C [27]: 1.66%
viability, T/C [28]: 0.37%
viability, T/C [29]: 0.45%
viability, T/C [30]: 0.11%
viability, T/C [31]: 0.41%
viability, T/C [32]: 0.28%
viability, T/C [33]: 0.32%
viability, T/C [34]: 0.14%
viability, T/C [35]: 0.15%
viability, T/C [36]: 0.18%
